Structures can show the parent of a compound that is named as a salt.
Molecular target: PI3Kδ (p110δ/p85α) (Homo sapiens (Human), UniProt O00329)
Assay: PI3Kδ Scintillation Proximity Assay (Assay A3)
Type: biochemical
Conditions: column b, Assay A3 (SPA), 20 μM ATP
From the text: [γ-^33P]ATP (10 mCi/mL) was purchased from Perkin-Elmer (Waltham, Mass.). Lipid kinase substrate, D-myo-Phosphatidylinositol 4,5-bisphosphate (PtdIns(4,5)P2)D (+)-sn-1,2-di-O-octanoylglyceryl, 3-O-phospho linked (PIP2), CAS 204858-53-7, was purchased from Echelon Biosciences (Salt Lake City, Utah). PI3Kδ (p110δ/p85α) was purchased from Millipore (Bedford, Mass.). ATP, MgCl2, DTT, EDTA, MOPS and CHAPS were purchased from Sigma-Aldrich (St. Louis, Mo.). Wheat Germ Agglutinin (WGA) YSi SPA Scintillation Beads was purchased from GE healthcare life sciences (Piscataway, N.J.).
The kinase reaction was conducted in polystyrene 384-well matrix white plate from Thermo Fisher Scientific in a final volume of 25 μL. Inhibitors were first diluted serially in DMSO and added to the plate wells before the addition of other reaction components. The final concentration of DMSO in the assay was 0.5%. The PI3K assays were carried out at room temperature in 20 mM MOPS, pH 6.7, 10 mM MgCl2, 5 mM DTT and CHAPS 0.03%. Reactions were initiated by the addition of ATP, the final reaction mixture consisted of 20 μM PIP2, 20 μM ATP, 0.2 μCi [γ-^33P] ATP, 4 nM PI3Kδ. Reactions were incubated for 210 min and terminated by the addition of 40 μL SPA beads suspended in quench buffer: 150 mM potassium phosphate pH 8.0, 20% glycerol. 25 mM EDTA, 400 μM ATP. The final concentration of SPA beads was 1.0 mg/mL. After the plate sealing, plates were shaken overnight at room temperature and centrifuged at 1800 rpm for 10 minutes, the radioactivity of the product was determined by scintillation counting on Topcount (Perkin-Elmer). IC50 determination was performed by fitting the curve of percent control activity versus the log of the inhibitor concentration using the GraphPad Prism 3.0 software.

Chain of PI3Kδ (p110δ/p85α) (O00329 whole entry, species assumed): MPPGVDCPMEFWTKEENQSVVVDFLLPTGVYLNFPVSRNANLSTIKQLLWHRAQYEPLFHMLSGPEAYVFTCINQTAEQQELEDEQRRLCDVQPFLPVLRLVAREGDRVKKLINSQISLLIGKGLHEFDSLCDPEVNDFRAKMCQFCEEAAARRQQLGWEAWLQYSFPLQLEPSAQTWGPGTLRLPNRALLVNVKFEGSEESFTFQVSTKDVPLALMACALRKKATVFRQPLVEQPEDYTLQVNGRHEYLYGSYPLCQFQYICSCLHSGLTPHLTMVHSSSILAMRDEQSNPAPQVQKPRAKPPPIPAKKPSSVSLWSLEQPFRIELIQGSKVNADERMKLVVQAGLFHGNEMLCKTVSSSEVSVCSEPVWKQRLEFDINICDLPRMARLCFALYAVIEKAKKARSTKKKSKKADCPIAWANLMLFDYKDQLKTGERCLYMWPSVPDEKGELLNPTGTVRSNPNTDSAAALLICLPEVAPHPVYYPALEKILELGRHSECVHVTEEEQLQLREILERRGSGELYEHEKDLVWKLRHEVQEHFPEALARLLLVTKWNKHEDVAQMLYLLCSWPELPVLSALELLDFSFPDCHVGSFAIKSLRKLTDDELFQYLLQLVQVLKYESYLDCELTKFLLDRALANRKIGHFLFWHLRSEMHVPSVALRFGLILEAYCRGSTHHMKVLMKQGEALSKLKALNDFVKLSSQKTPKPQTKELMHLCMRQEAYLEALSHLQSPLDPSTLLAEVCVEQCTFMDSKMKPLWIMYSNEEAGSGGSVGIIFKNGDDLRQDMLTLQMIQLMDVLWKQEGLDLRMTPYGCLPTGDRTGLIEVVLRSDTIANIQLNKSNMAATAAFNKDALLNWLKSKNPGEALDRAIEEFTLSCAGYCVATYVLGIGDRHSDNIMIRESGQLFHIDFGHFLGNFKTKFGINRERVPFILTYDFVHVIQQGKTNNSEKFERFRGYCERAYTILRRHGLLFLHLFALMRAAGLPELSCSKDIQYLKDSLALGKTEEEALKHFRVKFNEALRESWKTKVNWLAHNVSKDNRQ
Chain of PI3Kδ (p110δ/p85α) (P27986 whole entry partner, species assumed): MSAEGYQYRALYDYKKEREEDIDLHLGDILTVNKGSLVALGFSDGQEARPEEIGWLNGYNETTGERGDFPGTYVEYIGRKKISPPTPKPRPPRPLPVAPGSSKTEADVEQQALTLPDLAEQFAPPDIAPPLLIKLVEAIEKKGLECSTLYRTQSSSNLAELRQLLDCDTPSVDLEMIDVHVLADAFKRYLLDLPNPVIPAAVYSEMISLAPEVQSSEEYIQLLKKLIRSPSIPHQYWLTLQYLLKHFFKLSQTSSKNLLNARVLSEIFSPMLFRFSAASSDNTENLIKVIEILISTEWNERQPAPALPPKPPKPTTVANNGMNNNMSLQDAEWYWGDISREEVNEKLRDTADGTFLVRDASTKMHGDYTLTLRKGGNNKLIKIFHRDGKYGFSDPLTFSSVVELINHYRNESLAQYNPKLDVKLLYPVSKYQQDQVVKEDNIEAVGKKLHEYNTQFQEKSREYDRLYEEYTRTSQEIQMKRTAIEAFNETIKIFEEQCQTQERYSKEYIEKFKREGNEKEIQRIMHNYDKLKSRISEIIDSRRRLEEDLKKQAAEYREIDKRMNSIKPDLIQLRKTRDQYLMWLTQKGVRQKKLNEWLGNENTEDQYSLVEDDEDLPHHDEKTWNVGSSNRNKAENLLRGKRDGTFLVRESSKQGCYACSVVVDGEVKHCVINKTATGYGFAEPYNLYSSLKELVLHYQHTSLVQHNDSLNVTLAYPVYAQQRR

| Structure (SMILES) | IC50 [nM] |
| --- | --- |
| Cc1cccc2nc(C(C)Nc3nc(N)nc4[nH]cnc34)c(-c3ccccc3Cl)c(=O)n12 (stereo not drawn) [Example 58, 2-{1-[(2-Amino-9#-purin-6-yl)amino]ethyl}-3-(2-chlorophenyl)-6-methyl-4H-pyrido[1,2-a]pyrimidin-4-one trifluoroacetic acid salt] | < 50 |
| Cc1cccc2nc(C(C)Nc3nc(N)nc4[nH]cnc34)c(-c3ccccc3F)c(=O)n12 (stereo not drawn) [Example 60, 2-{1-[(2-Amino-9#-purin-6-yl)amino]ethyl}-3-(2-fluorophenyl)-6-methyl-4H-pyrido[1,2-a]pyrimidin-4-one trifluoroacetic acid salt] | < 50 |
| Cc1csc2nc(C(C)Nc3ncnc4[nH]cnc34)c(-c3ccccc3F)c(=O)n12 (stereo not drawn) [Example 40, 6-(2-fluorophenyl)-3-methyl-7-[1-(9H-purin-6-ylamino)ethyl]-5H-[1,3]thiazolo[3,2-a]pyrimidin-5-one trifluoroacetic acid salt] | < 50 |
| Cc1cccc2nc(C(C)Nc3nc(N)nc4[nH]cnc34)c(-c3cccc(Cl)c3)c(=O)n12 (stereo not drawn) [Example 54, 2-{1-[(2-Amino-9H-purin-6-yl)amino]ethyl}-3-(3-chlorophenyl)-6-methyl-4H-pyrido[1,2-a]pyrimidin-4-one trifluoroacetic acid salt] | < 50 |
| CCc1cccc2nc(C(C)Nc3nc(N)nc4[nH]cnc34)c(-c3cc(F)cc(F)c3)c(=O)n12 (stereo not drawn) [Example 77, 2-{1-[(2-Amino-9#-purin-6-yl)amino]ethyl}-3-(3,5-difluorophenyl)-6-ethyl-4H-pyrido[1,2-a]pyrimidin-4-one trifluoroacetic acid salt] | 50 to 100 |

Now from value to compound:

| IC50 [nM] | Structure (SMILES) |
| --- | --- |
| 100 to 500 | Cc1cccc2nc(C(C)Nc3nc(N)nc4[nH]cnc34)c(-c3ccc(C#N)cc3)c(=O)n12 (stereo not drawn) [Example 62, 4-(2-{1-[(2-Amino-9H-purin-6-yl)amino]ethyl}-6-methyl-4-oxo-4H-pyrido[1,2-a]pyrimidin-3-yl)benzonitrile trifluoroacetic acid salt] |
| > 500 | Cc1cccc2nc(C(C)Nc3ncnc4[nH]cnc34)c(-c3ccc(C#N)cc3)c(=O)n12 (stereo not drawn) [Example 61, 4-{6-Methyl-4-oxo-2-[1-(9H-purin-6-ylamino)ethyl]-4H-pyrido[1,2-a]pyrimidin-3-yl}benzonitrile trifluoroacetic acid salt] |
| < 50 | Cc1cccc2nc(C(C)Nc3ncnc4[nH]cnc34)c(-c3ccccc3)c(=O)n12 (stereo not drawn) [Example 49, 6-Methyl-3-phenyl-2-[1-(9H-purin-6-ylamino)ethyl]-4H-pyrido[1,2-a]pyrimidin-4-one trifluoroacetic acid salt] |
| < 50 | Cc1cccc2nc(C(C)Nc3ncnc4[nH]cnc34)c(-c3cccc(F)c3F)c(=O)n12 (stereo not drawn) [Example 66, 3-(2,3-Difluorophenyl)-6-methyl-2-[1-(9H-purin-6-ylamino)ethyl]-4H-pyrido[1,2-a]pyrimidin-4-one trifluoroacetic acid salt] |
| 100 to 500 | Cc1cccc2nc(C(C)Nc3ncnc4[nH]cnc34)c(-c3cc(F)cc(F)c3)c(=O)n12 (stereo not drawn) [Example 69, 3-(3,5-Difluorophenyl)-6-methyl-2-[1-(9H-purin-6-ylamino)ethyl]-4H-pyrido[1,2-a]pyrimidin-4-one trifluoroacetic acid salt] |
| < 50 | COc1cccc(-c2c(C(C)Nc3ncnc4[nH]cnc34)nc3cccc(C)n3c2=O)c1 (stereo not drawn) [Example 65, 3-(3-Methoxyphenyl)-6-methyl-2-[1-(9H-purin-6-ylamino)ethyl]-4H-pyrido[1,2-a]pyrimidin-4-one trifluoroacetic acid salt] |
| < 50 | CCc1cccc2nc(C(C)Nc3ncnc4[nH]cnc34)c(-c3ccc(F)cc3)c(=O)n12 (stereo not drawn) [Example 78, 6-Ethyl-3-(4-fluorophenyl)-2-[1-(9H-purin-6-ylamino)ethyl]-4H-pyrido[1,2-a]pyrimidin-4-one trifluoroacetic acid salt] |

Reference: patent US9975907B2, “Pyrimidinones as PI3K inhibitors” (Incyte Corporation, priority 2009, dated 2018)
